Legend:
[1] = Compound was evaluated for protection against cisplatin-induced emesis by measuring number of emetic episodes in ferrets when administered intravenously at 0.03 mg/kg.; assay type: functional, Mustela putorius furo; conditions: route intravenous
[2] = Compound was evaluated for protection against cisplatin-induced emesis by measuring number of emetic episodes in ferrets when administered intravenously at 0.1 mg/kg.; assay type: functional, Mustela putorius furo; conditions: route intravenous
Rattus norvegicus = test: Inhibitory activity against Bezold-jarisch functional assay, inducing a transient bradycardia upon intravenous administration of 5-hydroxytryptamine-(10 ug/kg) in anesthetized rats.; conditions: read-out: ID50 (the source's name)
[3] = Compound was evaluated for protection against cisplatin-induced emesis by measuring number of retches in ferrets when administered intravenously at 0.03 mg/kg.; assay type: functional, Mustela putorius furo; conditions: route intravenous
[4] = Compound was evaluated for protection against cisplatin-induced emesis by measuring number of retches in ferrets when administered intravenously at 0.1 mg/kg.; assay type: functional, Mustela putorius furo; conditions: route intravenous
[5] = Compound was evaluated for protection against cisplatin-induced emesis by measuring number of emetic episodes in ferrets when administered perorally at 0.1 mg/kg; assay type: functional, Mustela putorius furo; conditions: route oral
[6] = Compound was evaluated for protection against cisplatin-induced emesis by measuring number of retches in ferrets when administered perorally at 0.03 mg/kg; assay type: functional, Mustela putorius furo; conditions: route oral
[7] = Compound was evaluated for protection against cisplatin-induced emesis by measuring number of retches in ferrets when administered intravenously at 0.3 mg/kg.; assay type: functional, Mustela putorius furo; conditions: route intravenous
[8] = Compound was evaluated for protection against cisplatin-induced emesis by measuring number of emetic episodes in ferrets when administered intravenously at 0.01 mg/kg; assay type: functional, Mustela putorius furo; conditions: route intravenous
[9] = Compound was evaluated for protection against cisplatin-induced emesis by measuring number of retches in ferrets when administered perorally at 0.3 mg/kg.; assay type: functional, Mustela putorius furo; conditions: route oral
[10] = Compound was evaluated for protection against cisplatin-induced emesis by measuring number of retches in ferrets when administered intravenously at 0.01 mg/kg; assay type: functional, Mustela putorius furo; conditions: route intravenous
[11] = Compound was evaluated for protection against cisplatin-induced emesis by measuring number of retches in ferrets when administered intravenously at 0.1 mg/kg; assay type: functional, Mustela putorius furo; conditions: route intravenous
[12] = Compound was evaluated for protection against cisplatin-induced emesis by measuring number of emetic episodes in ferrets when administered perorally at 0.3 mg/kg; assay type: functional, Mustela putorius furo; conditions: route oral
[13] = Compound was evaluated for protection against cisplatin-induced emesis by measuring number of retches in ferrets when administered perorally at 0.1 mg/kg; assay type: functional, Mustela putorius furo; conditions: route oral
[14] = Compound was evaluated for protection against cisplatin-induced emesis by measuring number of emetic episodes in ferrets when administered perorally at 0.03 mg/kg; assay type: functional, Mustela putorius furo; conditions: route oral
[15] = Compound was evaluated for protection against cisplatin-induced emesis by measuring number of emetic episodes in ferrets when administered intravenously at 0.3 mg/kg; assay type: functional, Mustela putorius furo; conditions: route intravenous

| SMILES | ED50 (Rattus norvegicus) [µg/kg] | further results |
| --- | --- | --- |
| Cc1[nH]cnc1Cn1cccc(-c2cccs2)c1=O | 0.27 | No. of emetic episodes [1]: 6; No. of emetic episodes [2]: 1.3; No. of retches [3]: 90.8; No. of retches [4]: 22 |
| Cc1cc2c(=O)n(Cc3[nH]cnc3C)ccc2cc1N | 4.1 | – |
| CCn1c2ccccc2c2c3c(=O)n(Cc4[nH]cnc4C)ccc3ccc21 | 43.9 | – |
| Cc1[nH]cnc1Cn1cccc(-c2cccc([N+](=O)[O-])c2)c1=O | > 100 | – |
| Cc1[nH]cnc1Cn1cccc(-c2cc3ccccc3s2)c1=O | > 100 | – |
| Cc1[nH]cnc1Cn1cccc(-c2ccc(Br)s2)c1=O | 7.49 | – |
| Cc1ccsc1-c1cccn(Cc2[nH]cnc2C)c1=O | 0.44 | – |
| COc1ccccc1-c1cccn(Cc2[nH]cnc2C)c1=O | 18.2 | – |
| Cc1[nH]cnc1Cn1cccc(-c2ccccc2)c1=O | 12 | – |
| Cc1cccc(-c2cccn(Cc3[nH]cnc3C)c2=O)c1 | 9.03 | – |
| Cc1[nH]cnc1Cn1ccc2cc(N)c(Cl)cc2c1=O | 0.36 | No. of emetic episodes [5]: 1.2; No. of retches [6]: 142.2; No. of emetic episodes [1]: 4.8; No. of retches [7]: 18.8; No. of emetic episodes [8]: 10; No. of retches [9]: 3.5; No. of retches [10]: 116.8; No. of retches [11]: 26.5; No. of emetic episodes [2]: 1.3; No. of emetic episodes [12]: 0.2; No. of retches [13]: 18.6; No. of retches [3]: 71; No. of emetic episodes [14]: 8.8; No. of emetic episodes [15]: 0.8 |
| Cc1[nH]cnc1Cn1cccc(-c2ccco2)c1=O | 0.9 | – |
| COc1ccc2c(ccc3ccn(Cc4[nH]cnc4C)c(=O)c32)c1 | 56.6 | – |
| Cc1[nH]cnc1Cn1ccc2c(O)nc3ccccc3c2c1=O | 0.05 | – |
| Cc1[nH]cnc1Cn1cnc2ccccc2c1=O | > 100 | – |
| Cc1[nH]cnc1Cn1ccc2c(O)cc3ccccc3c2c1=O | 0.62 | – |
| COc1cc(N)c(Cl)cc1C(=O)NCc1[nH]cnc1C | 3.53 | – |
| Cc1nc[nH]c1Cn1ccc2c(C(=O)N(C)C)cc3ccccc3c2c1=O | 7.46 | – |
| Cc1[nH]cnc1Cn1ccc2ccccc2c1=O | 38.7 | – |
| Cc1[nH]cnc1Cn1cccc(-c2cccc(Cl)c2)c1=O | 10 | – |
| Cc1[nH]cnc1Cn1ccc2ccc(Cl)cc2c1=O | 25.5 | – |
| Cc1[nH]cnc1Cn1ccc2c3ccccc3c3ccccc3c2c1=O | 6.95 | – |
| Cc1[nH]cnc1Cn1ccc2nc3ccccc3cc2c1=O | 19.5 | – |
| Cc1[nH]cnc1Cn1ccc2c(c1=O)-c1ccsc1CC2 | 2.78 | – |
| COc1cccc(-c2cccn(Cc3[nH]cnc3C)c2=O)c1 | 26.7 | – |
| Cc1[nH]cnc1Cn1ccc2cccc(N)c2c1=O | 53.1 | – |

From ChEMBL document CHEMBL1125546, “Novel 5-HT3 antagonists. Isoquinolinones and 3-aryl-2-pyridones” (J Med Chem, 1992)
